Laboratory results: ChEMBL document CHEMBL4725397, “SAR study of bisamides as cyclophilin a inhibitors for the development of host-targeting therapy for hepatitis C virus infection” (Bioorg Med Chem, 2020)
pEC50, pKd: −log10 of the molar value.

Legend:
[1] = Antiviral activity against HCV genotype 2a JFH-1 infected in human Huh7.5 cells after 3 days by renilla luciferase reporter gene assay; assay type: functional, cell-based, Hepatitis C virus subtype 2a; conditions: Hepatitis C virus, JFH-1, Huh7.5, 72 h
[2] = Cytotoxicity against human Huh7.5 cells assessed as decrease in cell viability after 3 days by MTT assay; assay type: cell-based; conditions: time 3 day
[3] = Selectivity index, ratio of CC50 for human Huh7.5 cells to EC50 for genotype 2a HCV JFH-1 infected in human Huh7.5 cells; assay type: toxicity, cell-based
[4] = target: Peptidyl-prolyl cis-trans isomerase A (Homo sapiens, UniProt P62937); assay: Binding affinity to Cyclophilin A (unknown origin) by surface plasmon resonance analysis
Sequence of Peptidyl-prolyl cis-trans isomerase A (P62937 whole entry): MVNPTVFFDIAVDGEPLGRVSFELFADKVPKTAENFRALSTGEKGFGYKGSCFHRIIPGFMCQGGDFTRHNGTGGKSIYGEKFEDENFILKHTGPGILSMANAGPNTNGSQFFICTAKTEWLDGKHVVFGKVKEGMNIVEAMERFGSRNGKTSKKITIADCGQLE

Hepatitis C virus = assay: Antiviral activity against 0.05 MOI HCV JFH-1 infected in human Huh7.5 assessed as suppression of viral replication after 4 days post-infection by western blot analysis; assay type: functional, organism-based; conditions: Hepacivirus hominis, time 4.0 day

Row | SMILES | pEC50 [1] | CC50 at 72 h [2] | selectivity ratio [3] | pKd [4] | Activity (Hepatitis C virus)
1 | O=C(NC1CCCCC1)C(c1ccc([N+](=O)[O-])cc1)N(C(=O)Cc1c[nH]c2ccccc12)c1ccccc1 (centres undefined) | 5.22 | 11.9 µM | 2 | – | –
2 | O=C(NC1CCCCC1)C(c1ccc([N+](=O)[O-])cc1)N(C(=O)Cc1c[nH]c2ccccc12)c1ccc(Br)cc1 (centres undefined) | 5.20 | 13.8 µM | 2.2 | – | –
3 | NC(=O)c1ncn([C@@H]2O[C@H](CO)[C@@H](O)[C@H]2O)n1 [RIBAVIRIN] | 4.79 | > 100 µM | > 6.1 | – | –
4 | COc1ccc(N(C(=O)Cc2c[nH]c3ccccc23)C(C(=O)NC2CCCCC2)c2ccc([N+](=O)[O-])cc2)cc1OC (centres undefined) | 5.49 | 57.6 µM | 18 | – | –
5 | COc1ccc(N(C(=O)Cc2c[nH]c3ccccc23)C(C(=O)NC2CCCCC2)c2ccc([N+](=O)[O-])cc2)cc1 (centres undefined) | 5.60 | 8.5 µM | 3.4 | – | –
6 | COc1ccc(CN(C(=O)Cc2c[nH]c3ccccc23)C(C(=O)NC2CCCCC2)c2ccc([N+](=O)[O-])cc2)cc1 (centres undefined) | < 4.25 | 56.3 µM | – | – | –
7 | COc1ccc(CCN(C(=O)Cc2c[nH]c3ccccc23)C(C(=O)NC2CCCCC2)c2cc(OC)c(OC)c(OC)c2)cc1OC (centres undefined) | 5.28 | > 100 µM | – | – | –
8 | CC(C)c1ccc(N(C(=O)Cc2c[nH]c3ccccc23)C(C(=O)NC2CCCCC2)c2ccc([N+](=O)[O-])cc2)cc1 (centres undefined) | – | – | – | 5.34 | –
9 | CC(C)(C)NC(=O)C(c1ccc([N+](=O)[O-])cc1)N(C(=O)Cc1c[nH]c2ccccc12)c1ccc(Br)cc1 (centres undefined) | < 5.15 | 7 µM | – | – | –
10 | COc1ccc(CCC(=O)N(c2ccc(Br)cc2)C(C(=O)NC2CCCCC2)c2ccc([N+](=O)[O-])cc2)cc1 (centres undefined) | 5.21 | 9.8 µM | – | – | –
11 | COc1cccc(CCN(C(=O)Cc2c[nH]c3ccccc23)C(C(=O)NC2CCCCC2)c2ccc([N+](=O)[O-])cc2)c1 (centres undefined) | < 4.56 | 27.6 µM | – | – | –
12 | COc1cccc(CCN(C(=O)c2cc3ccccc3[nH]2)C(C(=O)NC2CCCCC2)c2ccc([N+](=O)[O-])cc2)c1 (centres undefined) | 4.65 | 43.1 µM | 1.9 | – | –
13 | COc1ccc(N(C(=O)c2cc3ccccc3[nH]2)C(C(=O)NC2CCCCC2)c2ccc([N+](=O)[O-])cc2)cc1OC (centres undefined) | 5.39 | > 100 µM | > 24.5 | – | Dose-dependent effect
14 | CCCCCNC(=O)C(c1ccc([N+](=O)[O-])cc1)N(C(=O)Cc1c[nH]c2ccccc12)c1ccc(Br)cc1 (centres undefined) | < 5.15 | 7 µM | – | – | –
15 | COc1ccc(CCN(C(=O)Cc2c[nH]c3ccccc23)C(C(=O)NC2CCCCC2)c2ccc([N+](=O)[O-])cc2)cc1OC (centres undefined) | 5.38 | > 100 µM | > 23.8 | – | Dose-dependent effect
16 | COc1ccc(CCN(C(=O)c2cc3ccccc3[nH]2)C(C(=O)NC2CCCCC2)c2ccc([N+](=O)[O-])cc2)cc1OC (centres undefined) | 4.50 | > 100 µM | > 3.1 | – | –
17 | COc1cc(C(C(=O)NC2CCCCC2)N(C(=O)Cc2c[nH]c3ccccc23)c2ccc(C(C)C)cc2)cc(OC)c1OC (centres undefined) | 5.28 | > 100 µM | – | – | –
